Patent publication EP0144441A1, “BLOOD PRESSURE-CONTROLLING AGENT” (HAYASHIBARA BIOCHEMICAL LABORATORIES, INC., priority 1983, dated 1984)
Read-outs that look alike come from different tables or passages of the source.

Key:
[1] = system: normal rats (Wistar-Kyoto); assay: Effect on blood pressure in normal rats (also heart rate, body weight); type: in vivo
Description: Male Wistar-Kyoto rats eight weeks old (weighing about 190 g) were used in groups of 5 animals. Platonin was orally administered at a dose of 1 µg/kg three times a week for 8 weeks. A physiological saline alone was administered to a control group in the same manner as above. During the administration period, blood pressure, heart rate and body weight were measured at timed intervals. Blood pressure, systolic, was bloodlessly measured in the caudal artery using a rat blood pressure manometer (made by Narco Biosystems Co.), and heart rate using a polygraph (made by Nippon Kohden Kabushiki Kaisha).

Acute toxicity = settings: rat, in vivo, male Wistar rats, suspended in 5 % gum arabic, observed 7 days, method of Van der Warden
Description: Eight male Wistar rats (weighing about 150 g) per group were used. Platonin suspended in 5 % gum arabic was administered intraperitonealy, or orally using a gastric tube. […] The LD50 value was calculated by the method of Van der Warden.

[2] = system: spontaneously hypertensive rats; assay: Effect on spontaneously hypertensive rats (blood pressure, heart rate, body weight); type: in vivo; settings: for antihypertensive effect: separate experiment (not illustrated)
Description: Male spontaneously hypertensive rats (hereinafter referred to as SHR, weighing about 190 g) eight weeks old were used in groups of 5 animals. Platonin was orally adminstered at a dose of 1 µg/kg three times a week for 13 weeks. A physiological saline alone was adminstered to a control group in the same manner as above. During the administration period, blood pressure, heart rate and body weight were measured at timed intervals.
Blood pressure, systolic, was bloodlessly measured in the caudal artery using a rat blood pressure manometer (made by Narco Biosystems Co.), and heart rate using a polygraph (made by Nippon Kohden Kabushiki Kaisha).

[3] = normal rats, in comparison with the control group

Compound: CCCCCCCN1C(C)=CS\C1=C/C=C(/C=C/c1scc(C)[n+]1CCCCCCC)c1scc(C)[n+]1CCCCCCC
- Effect on blood pressure in normal rats ([1]; male Wistar-Kyoto rats, oral, 1 µg/kg three times a week for 8 weeks, Fig. 3): no influence on blood pressure
- Effect on blood pressure in normal rats ([1]; normal rats, dose range of 1 to 100 µg/kg): no change in blood pressure
- body weight [1, 3]: no significant changes
- heart rate [1, 3]: no significant changes
- LD50 at 168 h (Acute toxicity; ip, intraperitoneal, read-out: intraperitoneal LD50 value): 54 mg/kg
- LD50 at 168 h (Acute toxicity; oral by gastric tube, read-out: oral LD50 value): 1500 mg/kg
- acute hypotensive effect ([2]; SHR, also at a higher dose, time for the antihypertensive effect to be revealed was the same): any acute hypotensive effect was not found
- Body weight change ([2]; SHR, oral, 1 µg/kg three times a week, Fig. 2): no influence on body weight gain
- Effect on heart rate ([2]; SHR, oral, 1 µg/kg three times a week, any time point during administration, compared with control group): any significant change in heart rate was not observed
- Body weight change ([2]; SHR, oral, 1 to 100 ug/kg three times a week (not illustrated)): no effect on body weight
- antihypertensive effect ([2]; SHR, after about 4 weeks of administration): significant decrease in blood pressure
- antihypertensive effect ([2]; SHR, till the 3rd week of administration): no effect at all
- Effect on blood pressure ([2]; male SHR, oral, 1 ug/kg three times a week for 13 weeks, systolic, caudal artery, each measurement time point after 5 weeks, Fig. 1): remarkable blood pressure fall
